# Measurements from patent US11261478B2, “Thermal stable luciferase with improved resistance to inhibition by luciferin break-down products” (priority 2016, dated 2022).
# pKi: −log10 of the molar value.
# What was measured:
# [1] = target: T1, UltraGlo luciferase (parent, ULTRA GLO luciferase, SEQ ID NO: 3) (Photuris pensylvanica, UniProt Q27757, A101V/A17E/A262V/C221A/D34A/D353K/D394P/E2A/F294L/F367L/F500Y/G84S/H14Y/H220I/I125V/I173S/K413N/L193S/L91V/N183Y/N412D/N499D/P295A/R357K/S105N/S204P/S36P/S399G/S502A/T234S/T249M/T354G/T386P/V145I/V194I/V203L/V300C/V356A/Y144S/Y27D); experiment: Competitive inhibition of F-luciferin luminescence by dehydro-F-luciferin, purified UltraGlo luciferase; type: biochemical; details: F-luciferin 1 mM, ATP 0.5 mM final, 3 minutes at room temperature, Michaelis-Menten competitive inhibition model
# T1 construct: full length, 552 aa
# Description: (§1) To explore the inhibition of F-luciferin luminescence by dehydro-F-luciferin by combination mutants, the mutant Triple+300 (H244W, T344A, I396K, C300G) was screened for its resistance to dehydroluciferin.
# (§2) Purified UltraGlo and Triple+300 luciferase enzymes were serially diluted from stocks in 1×TBS+1.0% Prionex to a concentration of 0.01 mg/ml. Racemic F-luciferin was serially diluted from stocks in water to 22 mM. Racemic dehydro-F-luciferin was serially diluted from stocks in water to 10 mM, and then 8 consecutive 4-fold serial dilutions were carried out for each concentration tested. ATP was diluted to 1 mM in BrightGlo Buffer or Detection Reagent buffer (depending on final reaction destination) to 1 mM concentration.
# (§3) The following components were then combined into wells of a flat bottom, white, 96-well plate: 50 ul diluted ATP in buffer (BrightGlo or Detection Reagent; 0.5 mM final concentration), 50 ul diluted luciferase enzyme ([…] final concentration), 5 ul diluted F-luciferin (1 mM final concentration), and 4 ul diluted dehydro-F-luciferin ([…] final concentration)
# (§4) Reactions were incubated for 3 minutes at room temperature, and luminescence was measured using a GloMax Multi+plate reader. Data were analyzed in GraphPad Prism 7 using nonlinear regression by fitting the data to a Michaelis-Menten competitive inhibition enzyme kinetic model.
# [2] = target: UltraGlo luciferase variant Triple+300 (H244W, T344A, I396K, C300G), SEQ ID NO: 11 (Photuris pensylvanica, UniProt Q27757, A101V/A17E/A262V/C221A/D34A/D353K/D394P/E2A/F294L/F367L/F500Y/G84S/H14Y/H220I/H244W/I125V/I173S/I396K/K413N/L193S/L91V/N183Y/N412D/N499D/P295A/R357K/S105N/S204P/S36P/S399G/S502A/T234S/T249M/T344A/T354G/T386P/V145I/V194I/V203L/V300G/V356A/Y144S/Y27D); experiment: Competitive inhibition of F-luciferin luminescence by dehydro-F-luciferin, purified Triple+300 luciferase mutant; type: biochemical; details: F-luciferin 1 mM, ATP 0.5 mM final, 3 minutes at room temperature, Michaelis-Menten competitive inhibition model
# Description: as §1, §2, §3, §4
# Chain of UltraGlo luciferase variant Triple+300 (H244W, T344A, I396K, C300G), SEQ ID NO: 11 (Q27757 other isoform, or with tags, fused parts or gaps with the stated changes): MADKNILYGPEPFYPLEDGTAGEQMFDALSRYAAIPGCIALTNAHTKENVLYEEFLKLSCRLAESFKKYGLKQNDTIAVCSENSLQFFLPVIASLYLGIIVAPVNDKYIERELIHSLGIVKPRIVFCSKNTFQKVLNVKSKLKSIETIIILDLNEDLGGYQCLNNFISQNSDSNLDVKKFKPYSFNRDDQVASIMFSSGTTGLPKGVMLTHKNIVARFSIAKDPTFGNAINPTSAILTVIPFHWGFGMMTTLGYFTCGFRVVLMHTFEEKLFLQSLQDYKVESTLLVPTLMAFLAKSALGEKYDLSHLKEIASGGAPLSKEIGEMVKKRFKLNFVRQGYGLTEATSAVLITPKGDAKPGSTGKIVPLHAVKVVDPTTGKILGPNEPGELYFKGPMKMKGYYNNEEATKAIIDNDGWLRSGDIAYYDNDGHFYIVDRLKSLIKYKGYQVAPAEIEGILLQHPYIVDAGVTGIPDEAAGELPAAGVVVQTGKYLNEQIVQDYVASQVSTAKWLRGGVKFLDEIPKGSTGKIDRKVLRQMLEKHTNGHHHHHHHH
# T1 sequence (Q27757 other isoform, or with tags, fused parts or gaps with the stated changes): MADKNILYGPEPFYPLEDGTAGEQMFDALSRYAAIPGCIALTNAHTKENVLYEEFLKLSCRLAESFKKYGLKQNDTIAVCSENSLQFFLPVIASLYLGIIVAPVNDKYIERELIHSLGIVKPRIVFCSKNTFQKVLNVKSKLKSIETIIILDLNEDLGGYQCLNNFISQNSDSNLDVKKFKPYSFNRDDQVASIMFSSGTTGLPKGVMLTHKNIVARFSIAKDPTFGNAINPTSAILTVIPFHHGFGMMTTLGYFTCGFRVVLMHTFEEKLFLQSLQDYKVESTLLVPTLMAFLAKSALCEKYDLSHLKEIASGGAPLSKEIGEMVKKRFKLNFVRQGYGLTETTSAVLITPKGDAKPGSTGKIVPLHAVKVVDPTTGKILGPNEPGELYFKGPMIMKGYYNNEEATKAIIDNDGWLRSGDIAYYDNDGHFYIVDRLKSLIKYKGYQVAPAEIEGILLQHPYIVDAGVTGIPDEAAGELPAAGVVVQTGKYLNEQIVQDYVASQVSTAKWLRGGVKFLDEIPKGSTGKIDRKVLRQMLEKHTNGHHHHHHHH
compound,measurement,setting,value
O=C(O)c1csc(-c2nc3cc(F)c(O)cc3s2)n1 [dehydro-F-luciferin],pKi,[1]; BrightGlo buffer,7.40
same,pKi,[1]; Detection Reagent buffer,6.38
same,pKi,[2]; BrightGlo buffer,7.14
same,pKi,[2]; Detection Reagent buffer,6.25
